# Reference: US10428044B2, “3-amino-1,5,6,7-tetrahydro-4H-indol-4-ones” (Bayer Pharma Aktiengesellschaft, priority 2014, dated 2019)
# Target: (recombinant) catalytic domain of human Bub1 (amino acids 704-1085) (Homo sapiens (Human), UniProt O43683)
# Assay: Bub1 kinase assay (TR-FRET)
# Assay type: biochemical
# Conditions: ATP 10 μM final, peptide substrate 1 μM final, 60 min at 22° C., read-out: Biological Assay: Bub1 kinase assay median IC50
# Summary of the method: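 Readout was TR-FRET between a Eu-labeled antibody complex recognizing phosphoserine and streptavidin-XL665 on the biotinylated peptide, after EDTA stop and 1 h at 22° C. The kinase reaction ran for 60 min at 22° C. Values are means or medians of repeat tests, from 4-parameter fits normalized to enzyme-free and inhibitor-free controls.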
# Chain of (recombinant) catalytic domain of human Bub1 (amino acids 704-1085) (O43683 704-1085): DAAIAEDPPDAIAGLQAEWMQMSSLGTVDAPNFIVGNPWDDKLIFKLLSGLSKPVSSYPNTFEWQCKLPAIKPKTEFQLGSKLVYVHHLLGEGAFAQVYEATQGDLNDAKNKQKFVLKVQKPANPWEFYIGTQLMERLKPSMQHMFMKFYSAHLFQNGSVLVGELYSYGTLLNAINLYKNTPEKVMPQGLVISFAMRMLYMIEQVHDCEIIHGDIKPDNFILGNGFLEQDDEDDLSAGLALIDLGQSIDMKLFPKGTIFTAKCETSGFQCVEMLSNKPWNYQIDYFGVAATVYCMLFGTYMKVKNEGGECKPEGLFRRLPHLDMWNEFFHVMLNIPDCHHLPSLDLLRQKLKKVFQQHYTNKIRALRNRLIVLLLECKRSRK
row,IC50,SMILES
1,954 nM,"CCCC(=O)Nc1cccc(Nc2c(-c3ccncc3)[nH]c3c2C(=O)CC(C)(C)C3)c1 [Example 102, N-(3-{[6,6-dimethyl-4-oxo-2-(pyridin-4-yl)-4,5,6,7-tetrahydro-1H-indol-3-yl]amino}phenyl)butanamide]"
2,9.71 nM,"CC(C)C1CC(=O)c2c([nH]c(-c3ccnc(NC(=O)C4CC4)c3)c2Nc2ccccc2)C1 (stereo not drawn) [Example 318, N-{4-[4-oxo-3-(phenylamino)-6-(propan-2-yl)-4,5,6,7-tetrahydro-1H-indol-2-yl]pyridin-2-yl}cyclopropanecarboxamide]"
3,20.4 nM,"CCCC(=O)Nc1cc(-c2[nH]c3c(c2Nc2ccccc2)C(=O)CCC3)ccn1 [Example 226, N-{4-[4-oxo-3-(phenylamino)-4,5,6,7-tetrahydro-1H-indol-2-yl]pyridin-2-yl}butanamide]"
4,82.3 nM,"CC1(C)CC(=O)c2c([nH]c(-c3ccncc3)c2Nc2ccc3cn[nH]c3c2)C1 [Example 74, 3-(1H-indazol-6-ylamino)-6,6-dimethyl-2-(pyridin-4-yl)-1,5,6,7-tetrahydro-4H-indol-4-one]"
5,7.19 nM,"CC1(C)CC(=O)c2c([nH]c(-c3ccnc(NC(=O)c4ccn[nH]4)c3)c2Nc2ccccc2)C1 [Example 465, N-{4-[6,6-dimethyl-4-oxo-3-(phenylamino)-4,5,6,7-tetrahydro-1H-indol-2-yl]pyridin-2-yl}-1H-pyrazole-3-carboxamide]"
6,68.9 nM,"CCCn1c2c(c(Nc3ccccc3)c1-c1ccncc1)C(=O)CC(C)(C)C2 [Example 182, 6,6-dimethyl-3-(phenylamino)-1-propyl-2-(pyridin-4-yl)-1,5,6,7-tetrahydro-4H-indol-4-one]"
7,84 nM,"O=C(NCC(F)(F)F)Nc1cc(-c2[nH]c3c(c2Nc2ccccc2)C(=O)CCC3)ccn1 [Example 382, 1-{4-[4-oxo-3-(phenylamino)-4,5,6,7-tetrahydro-1H-indol-2-yl]pyridin-2-yl}-3-(2,2,2-trifluoroethyl)urea]"
8,20.8 nM,"CC1(C)CC(=O)c2c([nH]c(-c3ccncc3)c2Nc2cccc(-c3ccccc3)c2)C1 [Example 45, 3-(biphenyl-3-ylamino)-6,6-dimethyl-2-(pyridin-4-yl)-1,5,6,7-tetrahydro-4H-indol-4-one]"
9,1380 nM,"CN(C)c1ccc(Nc2c(-c3ccncc3)[nH]c3c2C(=O)CC(C)(C)C3)cc1 [Example 435, 3-{[4-(dimethylamino)phenyl]amino}-6,6-dimethyl-2-(pyridin-4-yl)-1,5,6,7-tetrahydro-4H-indol-4-one]"
10,11.2 nM,"CC(=O)Nc1cc(-c2[nH]c3c(c2Nc2ccccc2)C(=O)CC2(CC2)C3)ccn1 [Example 293, N-{4-[4′-oxo-3′-(phenylamino)-1′,4′,5′,7′-tetrahydrospiro[cyclopropane-1,6′-indol]-2′-yl]pyridin-2-yl}acetamide]"
11,10 nM,"CC1(C)CC(=O)c2c([nH]c(-c3ccncc3)c2Nc2ccccc2)C1O (stereo not drawn) [Example 445, 7-hydroxy-6,6-dimethyl-3-(phenylamino)-2-(pyridin-4-yl)-1,5,6,7-tetrahydro-4H-indol-4-one]"
12,3.35 nM,"CC1(C)CC(=O)c2c([nH]c(-c3ccncc3)c2Nc2cc(F)ccc2CO)C1 [Example 487, 3-{[5-fluoro-2-(hydroxymethyl)phenyl]amino}-6,6-dimethyl-2-(pyridin-4-yl)-1,5,6,7-tetrahydro-4H-indol-4-one]"
13,162 nM,"Cn1c2c(c(Nc3ccccc3)c1-c1ccncc1)C(=O)CC(C)(C)C2 [Example 179, 1,6,6-trimethyl-3-(phenylamino)-2-(pyridin-4-yl)-1,5,6,7-tetrahydro-4H-indol-4-one]"
14,28.4 nM,"CC1(C)CC(=O)c2c([nH]c(-c3ccncc3OCC(F)(F)F)c2Nc2ccccc2)C1 [Example 412, 6,6-dimethyl-3-(phenylamino)-2-[3-(2,2,2-trifluoroethoxy)pyridin-4-yl]-1,5,6,7-tetrahydro-4H-indol-4-one]"
15,524 nM,CCOC(C)(C)C(=O)Nc1cc(-c2[nH]c3c(c2Nc2ccccc2)C(=O)CCC3)ccn1 [Example 328]
